Tests used:
Assay type in all cases: cell-based, human
PC-9 cells = assay: ABPP-SILAC proteomic target identification; settings: 1 μM, 1 hour, LC-MS/MS
Method: As part of our effort to identify compound 1's target(s), we embarked on the use of compound 2 as an ABPP probe to conduct SILAC-based proteomic analysis. […] In this experiment, PC-9 cells were grown in cultural medium supplemented with unlabeled L-arginine and L-lysine (light medium) versus ^13C/^15N stable isotope-labeled L-arginine and L-lysine (heavy medium), generating two populations of cells (light versus heavy cells). Heavy PC-9 cells were then exposed to the ABPP (1 μM) for 1 hour to allow intracellular labelling of target proteins, while light cells were treated with DMSO vehicle under the same condition. […] These peptide mixtures were analyzed by liquid chromatography-tandem mass spectrometry (LC-MS/MS), and the resulting data were searched against various primary sequence databases by using the Mascot search engine. […]
SILAC analysis and click chemistry. […] The supernatant was transferred to a 1.5 mL microfuge tube, and the protein concentration was determined by the BCA protein assay (Thermo Fisher Scientific) and then normalized to 1 mg/mL. […]
Proteomic data analysis. Putative target proteins of compound 1 and protein-protein interaction network were identified and analyzed, respectively, through a web-based search of the STRING database (https://string-db.org/). […]

lung cancer cell lines = assay: MTT cell viability assay, panel of lung cancer cell lines
Source text: Cell lines, cell culture, biochemical reagents, and antibodies. MiaPaCa-2, AsPC-1, and Panc-1 human pancreatic cancer cells, MCF-7 and MDA-MB-231 breast cancer cells, SCC4 and SCC2059 oral cancer cells, PC-3 and LNCaP prostate cancer cells, H157, H460, H1975, PC-9 and H1650 lung cancer cells were obtained from the American Type Culture Collection (ATCC, Manassas, Va.). All these cells were maintained in recommended growth medium (RPMI 1640 or DMEM) supplemented with 10% fetal bovine serum (FBS) (Invitrogen, Carlsbad, Calif., USA) and antibiotics at 37° C. in a humidified incubator containing 5% CO2. For SILAC experiments, PC-9 cells were grown in SILAC DMEM medium (Thermo Fisher) supplemented with 10% dialyzed FBS and 100 μg/mL each of unlabeled L-arginine and L-lysine (light medium) or ^13C/^15N stable isotope-labeled L-arginine and L-lysine (heavy medium). […]
Cell viability assays. Drug effects on cell viability was assessed by 3-(4,5-dimethylthiazol-2-yl)-2,5-diphenyltetrazolium bromide ([…]) assays. […] The medium was then removed from each well and replaced with DMSO to dissolve the reduced MTT dye for subsequent colorimetric measurement of absorbance at 560 nm. Cell viabilities are expressed as percentages of viable cells relative to the corresponding vehicle-treated control group.

[1] = tested on: PKM2, EGFR, Stat3, β-catenin in PC-9 cells; assay: Immunoblot analysis of oncogenic effectors in PC-9 cells; settings: Western blot, 24 hours
Method: Immunoblot analysis. PC-9 cells were seeded into 6 cm dish at a concentration of 5×10^5 cells/mL. After 24 hours, cells were treated with 0-1 μM compound 1 or DMSO alone for 24 hours. The cells were harvested at 24 hours, and protein extractions were carried out. The protein lysate was subjected to 10% SDS-PAGE and transferred to a nitrocellulose membrane (GE Healthcare Life Sciences). Protein expression was analyzed by Western blotting using primary antibodies against PKM2, EGFR, p-STAT3, STAT3, p-β-catenin (Cell Signaling Technology), β-catenin (Santa Cruz Biotechnology) and β-actin (Sigma-Aldrich), followed by incubation with horseradish peroxidase-conjugated secondary (Jackson ImmunoResearch Laboratories). Specific proteins were detected by chemiluminescence using ECL Plus Western Blotting Detection Reagents (GE Healthcare Biosciences).

[2] = tested on: pyruvate kinase activity in PC-9 cells; assay: Pyruvate kinase activity assay in PC-9 cells; settings: 0.25 μM, 6 hours, relative to vehicle control
Method: Pyruvate kinase activity assays. PC-9 cells were seeded into 6 cm dishes at a concentration of 5×10^5 cells/mL. After 24 hours, cells were treated with 0.25 μM compound 1 or DMSO for 6 hours. The pyruvate kinase activity of compound 1-treated PC-9 and vehicle control cells was measured by using a commercial colorimetric assay kit from BioVision (Milpitas, Calif., USA) according to the manufacturer's protocol. In addition, to verify the specificity of compound 1 toward PKM2 versus PKM1, the inhibition of the kinase activity of recombinant PKM1 (SRP0415, Sigma-Aldrich) and recombinant PKM2 (SAE0021, Sigma-Aldrich) by compound 1 was conducted using the aforementioned assay kit.

| Structure (SMILES) | protein targets labelled by ABPP probe (PC-9 cells) | antiproliferative effect in lung cancer cell lines (lung cancer cell lines) | expression and/or phosphorylation of PKM2, EGFR, Stat3, β-catenin [1] | pyruvate kinase activity in cells [2] |
| --- | --- | --- | --- | --- |
| C#CCOc1ccc(-c2ccc(-c3cc(CCC(=O)NC)nn3-c3ccc(NC(=O)C#C)cc3)cc2)cc1 [compound 2, N-(4-(3-(3-(Methylamino)-3-oxopropyl)-5-(4′-(prop-2-yn-1-yloxy)-[1,1′-biphenyl]-4-yl)-1H-pyrazol-1-yl)phenyl)propiolamide] | the protein with the highest matching score was the 58 kDa PKM2 | pattern of growth inhibition similar to that of compound 1 |  |  |
| C#CC(=O)Nc1ccc(-n2nc(CCc3nnc(C)o3)cc2-c2ccc(-c3ccc(C(F)(F)F)cc3)cc2)cc1 [compound 3] |  | high antiproliferative potencies | high efficacy in suppressing the phosphorylation/expression of various oncogenic biomarkers | equipotent in suppressing PKM2 kinase activity relative to compound 1 |
